Laboratory results reported in ChEMBL document CHEMBL5131478, “3,5-Bis(trifluoromethyl)phenylsulfonamides, a novel pancreatic cancer active lead. Investigation of the terminal aromatic moiety” (Bioorg Med Chem Lett, 2022).

Columns and labels:
HT-29 = assay: Growth inhibition of human HT-29 cells incubated for 72 hrs by MTT assay; type: functional
[1] = Growth inhibition of human MCF-10A cells incubated for 72 hrs by MTT assay; type: toxicity, cell-based
BE(2)-C = assay: Growth inhibition of human BE2C cells incubated for 72 hrs by MTT assay; type: functional
HPAC = assay: Growth inhibition of human HPAC cells incubated for 72 hrs by MTT assay; type: functional
MCF7 = assay: Growth inhibition of human MCF7 cells incubated for 72 hrs by MTT assay; type: functional
A2780 = assay: Growth inhibition of human A2780 cells incubated for 72 hrs by MTT assay; type: functional
MIA PaCa-2 = assay: Growth inhibition of human MIA PaCa-2 cells incubated for 72 hrs by MTT assay; type: functional
ASPC1 = assay: Growth inhibition of human ASPC1 cells incubated for 72 hrs by MTT assay; type: functional
Capan-2 = assay: Growth inhibition of human Capan-2 cells incubated for 72 hrs by MTT assay; type: functional
PANC-1 = assay: Growth inhibition of human PANC-1 cells incubated for 72 hrs by MTT assay; type: functional
BXPC-3 = assay: Growth inhibition of human BXPC-3 cells incubated for 72 hrs by MTT assay; type: functional
[2] = Growth inhibition of human SJG2 cells incubated for 72 hrs by MTT assay; type: functional; details: SJ-G2
DU-145 = assay: Growth inhibition of human DU-145 cells incubated for 72 hrs by MTT assay; type: functional
U-87 MG = assay: Growth inhibition of human U87 cells incubated for 72 hrs by MTT assay; type: functional, U-87MG ATCC
A-431 = assay: Growth inhibition of human A-431 cells incubated for 72 hrs by MTT assay; type: functional
NCI-H460 = assay: Growth inhibition of human NCI-H460 cells incubated for 72 hrs by MTT assay; type: functional

GI50 (HT-29) [µM] | GI50 (MCF7) [µM] | GI50 (A2780) [µM] | GI50 (MIA PaCa-2) [µM] | GI50 (ASPC1) [µM] | GI50 (PANC-1) [µM] | GI50 (BXPC-3) [µM] | GI50 (DU-145) [µM] | GI50 (U-87 MG) [µM] | GI50 (A-431) [µM] | GI50 (NCI-H460) [µM] | Compound | GI50 at 72 h [1] [µM] | GI50 (BE(2)-C) [µM] | GI50 (HPAC) [µM] | GI50 (Capan-2) [µM] | GI50 [2] [µM]
2.8 | 2.4 | 1.8 | 2.8 | 3 | 4.9 | 1.6 | – | – | – | – | O=S(=O)(NCCCNCc1ccc(Cl)cc1)c1cc(C(F)(F)F)cc(C(F)(F)F)c1 | 2.3 | 2.9 | 2.8 | 2.7 | –
10 | 2.4 | 1.6 | 3.4 | 3.8 | 10 | 1.7 | – | – | – | – | COc1cccc(CNCCCNS(=O)(=O)c2cc(C(F)(F)F)cc(C(F)(F)F)c2)c1 | 6.6 | 4.5 | 2.4 | 6.4 | –
15 | 3 | 4.9 | 11 | 13 | 16 | 13 | – | – | – | – | O=S(=O)(NCCCNCc1ccccc1)c1cc(C(F)(F)F)cc(C(F)(F)F)c1 | 13 | 12 | 3.2 | 14 | –
2.2 | 1.9 | 2.6 | 2.3 | 2.8 | 2.2 | 1.5 | 2.6 | 2.1 | 2.5 | 2.5 | O=S(=O)(NCCCNCc1ccc(Br)cc1)c1cc(C(F)(F)F)cc(C(F)(F)F)c1 | 3.1 | 2.7 | 2.9 | 2 | 2.4
– | – | – | 11.7 | – | – | – | – | – | – | – | O=[N+]([O-])c1ccccc1S(=O)(=O)NCCCCCCNCc1ccc(Br)cc1 | – | – | – | – | –
– | – | – | 3.83 | – | – | – | – | – | – | – | O=S(=O)(NCCCCCCNCc1ccc(Br)cc1)c1ccc(C(F)(F)F)cc1 | – | – | – | – | –
– | – | – | 5.7 | – | – | – | – | – | – | – | CCCCc1ccc(S(=O)(=O)NCCCCCCNCc2ccc(Br)cc2)cc1 | – | – | – | – | –
13 | 25 | 14 | 29 | 20 | 34 | 20 | 30 | 25 | 25 | 19 | COc1ccc(CNCCNS(=O)(=O)c2cc(C(F)(F)F)cc(C(F)(F)F)c2)cc1OC | 25 | 23 | 16 | 34 | 29
2.2 | 2.5 | 1.5 | 2.6 | 2.9 | 3.4 | 1.2 | – | – | – | – | O=S(=O)(NCCCNCC1COc2ccccc2O1)c1cc(C(F)(F)F)cc(C(F)(F)F)c1 (stereo not drawn) | 3.2 | 2.8 | 2.7 | 2.5 | –
14 | 13 | 14 | 15 | 14 | 13 | 8.8 | 16 | 13 | 16 | 14 | CC(C)(C)c1ccc(CNCCNS(=O)(=O)c2cc(C(F)(F)F)cc(C(F)(F)F)c2)cc1 | 14 | 14 | 14 | 13 | 14
14 | 2.6 | 2.2 | 4.4 | 5.9 | 12 | 3.8 | – | – | – | – | O=S(=O)(NCCCNCc1cccc(Cl)c1)c1cc(C(F)(F)F)cc(C(F)(F)F)c1 | 7 | 6.9 | 2.7 | 8 | –
2 | 2.1 | 2.9 | 2.3 | 2.7 | 2.5 | 1.4 | 2.7 | 2.3 | 2.8 | 2.5 | CC(C)(C)c1ccc(CNCCCNS(=O)(=O)c2cc(C(F)(F)F)cc(C(F)(F)F)c2)cc1 | 3.2 | 2.5 | 2.3 | 2.1 | 2.4
– | – | – | 14.7 | – | – | – | – | – | – | – | O=S(=O)(NCCCCCCNCc1ccc(Br)cc1)c1c(Cl)cccc1Cl | – | – | – | – | –
– | – | – | 2.97 | – | – | – | – | – | – | – | CC(C)(C)c1ccc(S(=O)(=O)NCCCCCCNCc2ccc(Br)cc2)cc1 | – | – | – | – | –
– | – | – | 12 | – | – | – | – | – | – | – | O=S(=O)(NCCCCCCNCc1ccc(Br)cc1)c1cc(Cl)cc(Cl)c1 | – | – | – | – | –
4.7 | 2.4 | 1.5 | 2.7 | 2.8 | 5.6 | 1.4 | – | – | – | – | O=S(=O)(NCCCNCc1ccc(Cl)c(Cl)c1)c1cc(C(F)(F)F)cc(C(F)(F)F)c1 | 3 | 2.9 | 2.5 | 1.8 | –
2.9 | 2.5 | 1.7 | 2.5 | 2.8 | 11 | 1.3 | – | – | – | – | COc1ccc(CNCCCNS(=O)(=O)c2cc(C(F)(F)F)cc(C(F)(F)F)c2)cc1 | 3.1 | 2.8 | 3 | 2.4 | –
20 | 8.8 | 9.3 | 11 | 13 | 15 | 11 | – | – | – | – | O=S(=O)(NCCCNCc1ccccc1Cl)c1cc(C(F)(F)F)cc(C(F)(F)F)c1 | 11 | 15 | 10 | 13 | –
– | – | – | 9.8 | – | – | – | – | – | – | – | O=[N+]([O-])c1ccc(S(=O)(=O)NCCCCCCNCc2ccc(Br)cc2)cc1 | – | – | – | – | –

GI50 (HT-29) [µM] | GI50 (MCF7) [µM] | GI50 (A2780) [µM] | GI50 (MIA PaCa-2) [µM] | GI50 (ASPC1) [µM] | GI50 (PANC-1) [µM] | GI50 (BXPC-3) [µM] | GI50 (DU-145) [µM] | GI50 (U-87 MG) [µM] | GI50 (A-431) [µM] | GI50 (NCI-H460) [µM] | Compound | GI50 at 72 h [1] [µM] | GI50 (BE(2)-C) [µM] | GI50 (HPAC) [µM] | GI50 (Capan-2) [µM] | GI50 [2] [µM]
– | – | – | 13 | – | – | – | – | – | – | – | O=S(=O)(NCCCCCCNCc1ccc(Br)cc1)c1ccc2c(c1)OCC2 | – | – | – | – | –
– | – | – | 12.3 | – | – | – | – | – | – | – | Cc1ccc(S(=O)(=O)NCCCCCCNCc2ccc(Br)cc2)cc1 | – | – | – | – | –
12 | 2.6 | 1.5 | 3.1 | 4.6 | 12 | 1.7 | – | – | – | – | COc1ccccc1CNCCCNS(=O)(=O)c1cc(C(F)(F)F)cc(C(F)(F)F)c1 | 5.5 | 3.6 | 2.4 | 6 | –
– | – | – | 5.97 | – | – | – | – | – | – | – | O=S(=O)(NCCCCCCNCc1ccc(Br)cc1)c1cccc(C(F)(F)F)c1 | – | – | – | – | –
– | – | – | 6 | – | – | – | – | – | – | – | O=S(=O)(NCCCCCCNCc1ccc(Br)cc1)c1ccc2ccsc2c1 | – | – | – | – | –
11 | 3.5 | 5.9 | 7.4 | 9.6 | 10 | 7.8 | – | – | – | – | O=S(=O)(NCCCNCc1ccc(Cl)c(C(F)(F)F)c1)c1cc(C(F)(F)F)cc(C(F)(F)F)c1 | 7.9 | 8.6 | 3 | 9.1 | –
> 50 | 16 | 28 | 33 | 51 | > 50 | 39 | – | – | – | – | CN(CCCNS(=O)(=O)c1cc(C(F)(F)F)cc(C(F)(F)F)c1)Cc1ccccc1 | 26 | 28 | 30 | 46 | –
1.6 | 1.5 | 2.1 | 2.1 | 2.9 | 2.2 | 1.7 | – | – | – | – | O=S(=O)(NCCCCNCc1ccc(Br)cc1)c1cc(C(F)(F)F)cc(C(F)(F)F)c1 | 3.2 | 2.2 | 2 | 1.9 | –
– | – | – | 2.97 | – | – | – | – | – | – | – | O=S(=O)(NCCCCCCNCc1ccc(Br)cc1)c1cc(C(F)(F)F)cc(C(F)(F)F)c1 | – | – | – | – | –
– | – | – | 5.73 | – | – | – | – | – | – | – | CC(C)c1ccc(S(=O)(=O)NCCCCCCNCc2ccc(Br)cc2)cc1 | – | – | – | – | –
2.9 | 1.4 | 2.8 | 2.5 | 2 | 3.2 | 1.7 | – | – | – | – | O=S(=O)(NCCCNCc1ccc(C(F)(F)F)cc1)c1cc(C(F)(F)F)cc(C(F)(F)F)c1 | 3.3 | 2.7 | 2.7 | 2 | –
– | – | – | 13 | – | – | – | – | – | – | – | COc1ccc(S(=O)(=O)NCCCCCCNCc2ccc(Br)cc2)cc1 | – | – | – | – | –
– | – | – | 13.3 | – | – | – | – | – | – | – | O=S(=O)(NCCCCCCNCc1ccc(Br)cc1)c1ccccc1F | – | – | – | – | –
– | – | – | 12 | – | – | – | – | – | – | – | Cc1ccc(C)c(S(=O)(=O)NCCCCCCNCc2ccc(Br)cc2)c1 | – | – | – | – | –
– | – | – | 13.7 | – | – | – | – | – | – | – | O=S(=O)(NCCCCCCNCc1ccc(Br)cc1)c1ccccc1Cl | – | – | – | – | –
16 | 18 | 21 | 26 | 22 | 24 | 23 | – | – | – | – | O=S(=O)(NCCNCc1cccc2ccccc12)c1cc(C(F)(F)F)cc(C(F)(F)F)c1 | 22 | 19 | 18 | 21 | –
– | – | – | 5.67 | – | – | – | – | – | – | – | O=S(=O)(NCCCCCCNCc1ccc(Br)cc1)c1c(Cl)cc(C(F)(F)F)cc1Cl | – | – | – | – | –
– | – | – | 5.9 | – | – | – | – | – | – | – | O=S(=O)(NCCCCCCNCc1ccc(Br)cc1)c1ccc(Cl)cc1 | – | – | – | – | –
2.6 | 1.4 | 3.1 | 2.8 | 21 | 2.7 | 2.7 | – | – | – | – | O=S(=O)(NCCCNCc1cccc2ccccc12)c1cc(C(F)(F)F)cc(C(F)(F)F)c1 | 3.2 | 2.7 | 2.4 | 2.7 | –
